Results reported in US9464326B2, “Total and phosphorylated IL-1 receptor-associated kinase-1 and IL-1 receptor-associated kinase-4 as a biomarker for cancer progression and chemotherapy resistance” (University of Maryland, Baltimore, priority 2012, dated 2016).

Assays:
Type in all cases: cell-based, human
CCRF-CEM cells [1] = experiment: Cell cycle analysis (PI staining); settings: 5 uM
Experimental: Control and treated cells were collected, fixed and stained with propidium iodide (100 μg/mL) in PBS containing sodium citrate (1 mg/mL), Triton-X-100 (0.1%), and RNAse (20 μg/mL) for 30 min. Data were acquired on a BD FACScan flow cytometer using CellQuest software (BD Immunocytometry Systems, San Jose, Calif.) and analyzed by using FlowJo software (Tree Star, Inc., Ashland, Oreg.).
It was investigated whether the reduced proliferation that we observed with IRAK-1,-4 inhibitor (FIG. 11 and FIG. 12) was a result of cell cycle arrest or apoptosis. CCRF-CEM cells were treated with IRAK-1,-4 inhibitor for 24, 48, 72, and 96 hours.

CCRF-CEM cells [2] = experiment: Cell number and apoptosis assays; settings: 5 uM, 24-96 hours
Experimental: (§1) TLR ligands were diluted 2-fold. Cell lines (25-40×10^3/well) were cultured for 54 hours, whereas fresh patient-derived T-ALL cells (200×10^3/well) were cultured for 30 hours prior to adding [^3H]-thymidine for 18 hours. After this time point, cells were harvested with a Packard Filter-Mate-96 cell harvester (Perkin Elmer, Waltham, Mass., USA) and counted on Packard Top Count-NXT (Perkin Elmer, Waltham, Mass., USA). Results were expressed as average counts per minute (cpm). In some experiments CCRF-CEM cells were pre-treated with TLR1-TLR2 ligand (Pam3CysK4; 2.5 ug/ml) for 48 hrs, washed, and then cultured in the presence of varying concentrations of FBS. Forty-eight hours later, proliferation (±SD) was determined by ^3H-thymidine incorporation. Alternatively, apoptosis was measured by flow cytometry after staining cells with Annexin-V (BD Pharmingen, San Diego, Calif., USA) and propidium iodide (Sigma). Cell number was counted under microscopy by staining cells with trypan blue.
CCRF-CEM cells were treated with IRAK-1,-4 inhibitor for 24, 48, 72, and 96 hours.
The T-ALL cell line CCRF-CEM was cultured in the presence of 0, 1.2, 5, 10, and 20 μM IRAK-1,-4 inhibitor. (FIG. 23). To each concentration of IRAK-1,-4 inhibitor titrating doses of ABT-737 (1000→15 nM) vincristine, VS (10→0.1 nM), and paclitaxol, PAC (100→1.5 nM). […] Apoptosis was measure 48 hours later by staining cells with 7AAD and analyzed by flow cytometry.

CEM-C1 = experiment: Proliferation (3H-thymidine) of CEM-C1
Description: (§2) CCRF-CEM, CEM/C1, CEM/C2, CEM-C7, Jurkat, Loucy, Molt-4, HSB-2, SUP-T1, Hut 78, HH, Hut 102, MO, and H9 T-leukemia and T-lymphoma cell lines were purchased from the American Type Culture Collection (Manassas, Va., USA). All of the cell lines were initially expanded and cryopreserved within one month of receipt. Cells were typically used for 6 months at which time a fresh vial of cryopreserved cells was used. Total T cells from healthy donors were isolated via negative selection followed by positive selection using a CD3+ selection kit (Invitrogen, Carlsbad, Calif.). T cells were isolated from patients with T-ALL bone marrow or peripheral blood samples containing more than 70% leukemia cells using a CD2+ isolation kit (STEMCELL Technologies, Vancouver, Canada). All tissues were collected under institutional IRB-approved protocols and all participants gave written informed assent/consent. For in vitro experiments, T-ALL cells were cultured in AIM-V medium supplemented with 20% human AB serum in the presence of recombinant human stem cell factor (50 ng/mL; Amgen, Thousand Oaks, Calif.), insulin (20 nM; Sigma-Aldrich, St Louis, Mo., USA) and IL-7 (50 ng/mL; R&D Systems, Minneapolis, Minn., USA). In other experiments, protein lysate was collected using the Full Moon Biosystems (Sunnyvale, Calif., USA) buffer prior to protein examination by western blot or protein array.
as §1, with “Cells were cultured in a 96-well plate (Corning Costar, Corning, N.Y., USA) with various concentrations of TLR ligands 1-9, starting at 10 μg/ml, in a final volume of 200 ul. TLR ligands” for “TLR ligands”, “trypan blue. […]” for “trypan blue.”

Loucy = experiment: Proliferation (3H-thymidine) of Loucy
Description: as §2
as §1, with “Cells were cultured in a 96-well plate (Corning Costar, Corning, N.Y., USA) with various concentrations of TLR ligands 1-9, starting at 10 μg/ml, in a final volume of 200 ul. TLR ligands” for “TLR ligands”, “trypan blue. […]” for “trypan blue.”

H9 = experiment: Proliferation (3H-thymidine) of H9
Description: as §2
as §1, with “Cells were cultured in a 96-well plate (Corning Costar, Corning, N.Y., USA) with various concentrations of TLR ligands 1-9, starting at 10 μg/ml, in a final volume of 200 ul. TLR ligands” for “TLR ligands”
The following TLR ligands were purchased from Invivogen (San Diego, Calif., USA): tripalmitoyl-S-(bis(palmitoyloxy)propyl)-Cys-Ser-(Lys)3-Lys (TLR1-2); Poly I:C (TLR3); ultrapure S. Minnesota Lipopolysaccharide (TLR4); S. typhimurium flagellin (TLR5); FSL-1 (TLR2/6); Imiquimod (TLR7); ssRNA40/Lyovec (TLR8); CpG-ODN 2006 (TLR9).

Compound	decrease of percentage of cells in S phase (CCRF-CEM cells [1]; FIG. 14C) [%]	percentage of cells in G0/G1 phase (CCRF-CEM cells [1]; after 96 hours) [%]	percentage of cells in G0/G1 phase (CCRF-CEM cells [1]; within 24 hours (from 25%)) [%]	number of viable cells (CCRF-CEM cells [2]; FIG. 14B)	apoptosis (sub-G1 phase, Annexin V) (CCRF-CEM cells [2]; FIG. 14D)	Proliferative effects of TLR ligands (CEM-C1; 3H-thymidine uptake, 72 h)	TLR ligand concentration in parentheses below the symbol (CEM-C1; no unit in table (μg/ml))	Proliferative effects of TLR ligands (Loucy; 3H-thymidine uptake, 72 h)	TLR ligand concentration in parentheses below the symbol (Loucy; no unit in table (μg/ml))	Proliferative effects of TLR ligands (H9; H9, 3H-thymidine uptake, 72 h)	effect on proliferation (in words) (H9; H9 T-lymphoma, FIG. 1A)
O=C(Nc1nc2ccccc2n1CCN1CCOCC1)c1cccc([N+](=O)[O-])c1 [IRAK-1,-4 inhibitor]	~30	50	43	maintained a relatively constant number of viable cells	did not induce apoptosis	–	–	–	–	–	–
tripalmitoyl-S-(bis(palmitoyloxy)propyl)-Cys-Ser-(Lys)3-Lys [Pam3Cysk4]	–	–	–	–	–	+ (enhanced proliferation by 25% or greater)	(2.5)	+ (enhanced proliferation by 25% or greater)	(2.5)	∘	no effect on proliferation
